The values below come from BindingDB's records for doi:10.1016/j.bioorg.2013.06.006 (North-West University, Private Bag X6001, Potchefstroom …, 2013).

Bounds are passed on as bounds.

In the experiment the target is Adenosine receptor A2a (Rattus norvegicus, UniProt P30543).
Chain of Adenosine receptor A2a (P30543 whole entry): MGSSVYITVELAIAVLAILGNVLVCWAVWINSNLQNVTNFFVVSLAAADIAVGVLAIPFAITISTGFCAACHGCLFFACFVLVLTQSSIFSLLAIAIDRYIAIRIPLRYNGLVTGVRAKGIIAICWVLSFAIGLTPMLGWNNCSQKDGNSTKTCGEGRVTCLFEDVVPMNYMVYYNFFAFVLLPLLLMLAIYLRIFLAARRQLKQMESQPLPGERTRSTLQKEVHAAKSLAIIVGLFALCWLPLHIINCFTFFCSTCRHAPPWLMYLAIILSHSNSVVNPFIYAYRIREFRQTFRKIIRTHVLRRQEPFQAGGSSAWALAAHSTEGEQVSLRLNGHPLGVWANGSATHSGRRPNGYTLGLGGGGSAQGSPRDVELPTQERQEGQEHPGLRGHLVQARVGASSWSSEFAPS
On to `CCn1c(/C=C/c2cccc(C(F)(F)F)c2)nc2c1c(=O)n(C)c(=O)n2C` [(E)-8-[3-(Trifluoromethyl)styryl]-1,3-dimethyl-7-ethylxanthine (5f)], for which the Ki (in general, a measure of affinity in units of concentration, obtained from inhibition or displacement) was determined as 93.8 nM. In the case of `CCn1c(=O)c2c(nc(/C=C/c3cccc(Br)c3)n2CC)n(CC)c1=O` [(E)-8-(3-Bromostyryl)-1,3,7-triethylxanthine (7d)], the Ki came to 161 nM. In turn, `Cn1c(=O)c2c(nc(CCCc3ccccc3)n2C)n(C)c1=O` [8-(3-Phenylpropyl)-1,3,7-trimethylxanthine (9a)] registered a Ki greater than 1000 nM.

Regarding `Cn1c(=O)c2c(nc(/C=C/c3ccc(Cl)c(Cl)c3)n2C)n(C)c1=O` [(E)-8-(3,4-Dichlorostyryl)caffeine (4b)], the Ki was determined as 44.8 nM. On to `CCn1c(/C=C/c2ccc(Br)cc2)nc2c1c(=O)n(C)c(=O)n2C` [(E)-8-(4-Bromostyryl)-1,3-dimethyl-7-ethylxanthine (5e)], for which the Ki worked out at 546 nM.

Take `CCn1c(=O)c2c(nc(COc3ccccc3)n2CC)n(CC)c1=O` [8-Phenoxymethyl-1,3,7-triethylxanthine (8d)]: the Ki is greater than 1000 nM. `CCn1c(=O)c2c(nc(/C=C/c3cccc(Cl)c3)n2CC)n(CC)c1=O` [(E)-8-(3-Chlorostyryl)-1,3,7-triethylxanthine (7a)] came in with a Ki greater than 1000 nM. The figure for `CCn1c(COc2ccccc2)nc2c1c(=O)n(C)c(=O)n2C` [8-Phenoxymethyl-1,3-dimethyl-7-ethylxantine (8b)] is greater than 1000 nM. `CCn1c(/C=C/c2cccc(Cl)c2)nc2c1c(=O)n(C)c(=O)n2C` [(E)-8-(3-Chlorostyryl)-1,3-dimethyl-7-ethylxanthine (5a)] had a Ki of 421 nM. The compound `CCn1c(=O)c2c(nc(/C=C/c3ccc(Br)cc3)n2CC)n(CC)c1=O` [(E)-8-(4-Bromostyryl)-1,3,7-triethylxanthine (7e)] registered a Ki of 83 nM. Turning to `CCn1c(/C=C/c2ccc(Cl)c(Cl)c2)nc2c1c(=O)n(C)c(=O)n2C` [(E)-8-(3,4-Dichlorostyryl)-1,3-dimethyl-7-ethylxanthine (5c)], the Ki was 32.9 nM.

`CCn1c(CCCc2ccccc2)nc2c1c(=O)n(C)c(=O)n2C` [8-(3-Phenylpropyl)-1,3-dimethyl-7-ethylxanthine (9b)] yielded a Ki greater than 1000 nM.

Take `CCn1c(=O)c2c(nc(/C=C/c3cccc(Br)c3)n2C)n(CC)c1=O` [(E)-8-(3-Bromostyryl)-1,3-diethyl-7-methylxanthine (6d)]: the affinity corresponds to a Ki of 17.2 nM. Compound `CCn1c(=O)c2c(nc(/C=C/c3ccc(Cl)cc3)n2CC)n(CC)c1=O` [(E)-8-(4-Chlorostyryl)-1,3,7-triethylxanthine (7b)] had a Ki greater than 1000 nM. In turn, `CCn1c(=O)c2c(nc(/C=C/c3cccc(C(F)(F)F)c3)n2C)n(CC)c1=O` [(E)-8-[3-(Trifluoromethyl)styryl]-1,3-diethyl-7-methylxanthine (6f)] showed a Ki of 11.9 nM.

Regarding `Cn1c(=O)c2c(nc(/C=C/c3ccc(Cl)cc3)n2C)n(C)c1=O`, the inhibitory constant (Ki) was 169 nM. As to `CCn1c(=O)c2c(nc(CCCc3ccccc3)n2CC)n(CC)c1=O` [8-(3-Phenylpropyl)-1,3,7-triethylxanthine (9d)], the Ki is greater than 1000 nM. The figure for `Cn1c(=O)c2c(nc(/C=C/c3cccc(C(F)(F)F)c3)n2C)n(C)c1=O` is 125 nM; for `CCn1c(=O)c2c(nc(CCCc3ccccc3)n2C)n(CC)c1=O` [8-(3-Phenylpropyl)-1,3-diethyl-7-methylxanthine (9c)] it is greater than 1000 nM; for `CCn1c(=O)c2c(nc(/C=C/c3cccc(C(F)(F)F)c3)n2CC)n(CC)c1=O` [(E)-8-[3-(Trifluoromethyl)styryl]-1,3,7-triethylxanthine (7f)] it is greater than 1000 nM. For `CCn1c(/C=C/c2cccc(Br)c2)nc2c1c(=O)n(C)c(=O)n2C` [(E)-8-(3-Bromostyryl)-1,3-dimethyl-7-ethylxanthine (5d)], the Ki was 58.2 nM. Consider `Cn1c(=O)c2c(nc(/C=C/c3ccc(Br)cc3)n2C)n(C)c1=O` [(E)-8-(4-Bromostyryl)-1,3,7-trimethylxanthine (4d)], for which affinity was put at a Ki of 127 nM. `CCn1c(=O)c2c(nc(/C=C/c3ccc(Br)cc3)n2C)n(CC)c1=O` [(E)-8-(4-Bromostyryl)-1,3-diethyl-7-methylxanthine (6e)] displayed a Ki of 28.9 nM.

`CCn1c(/C=C/c2ccc(Cl)cc2)nc2c1c(=O)n(C)c(=O)n2C` [(E)-8-(4-Chlorostyryl)-1,3-dimethyl-7-ethylxanthine (5b)] displayed an inhibition constant Ki of 95.3 nM.

In turn, `Cn1c(=O)c2c(nc(COc3ccccc3)n2C)n(C)c1=O` registered a Ki of 137 nM. The figure for `Cn1c(=O)c2c(nc(/C=C/c3cccc(Br)c3)n2C)n(C)c1=O` [(E)-8-(3-Bromostyryl)-1,3,7-trimethylxanthine (4c)] is 28.4 nM; for `CCn1c(=O)c2c(nc(COc3ccccc3)n2C)n(CC)c1=O` [8-Phenoxymethyl-1,3-diethyl-7-methylxanthine (8c)] it is greater than 1000 nM; for `CCn1c(=O)c2c(nc(/C=C/c3cccc(Cl)c3)n2C)n(CC)c1=O` [(E)-8-(3-Chlorostyryl)-1,3-diethyl-7-methylxanthine (6a)] it is 24.3 nM. Compound `CCn1c(=O)c2c(nc(/C=C/c3ccc(Cl)c(Cl)c3)n2CC)n(CC)c1=O` [(E)-8-(3,4-Dichlorostyryl)-1,3,7-triethylxanthine (7c)] registered a Ki of 428 nM.
